One assay deals with HeLa. Briefly: Cytotoxicity against human HeLa cells expressing estrogen receptor after 48 hrs by MTT assay. The format is functional, cell-based.
For the next assay, the system named is MRC5. The assay is described as follows: Cytotoxicity against human MRC5 cells expressing estrogen receptor after 48 hrs by MTT assay. To be noted: MRC5, 48 h. Type of assay: cell-based.
For a further assay, the system named is HT-29. The assay is described as follows: Cytotoxicity against human HT-29 cells expressing estrogen receptor after 48 hrs by MTT assay. Type of assay: functional, cell-based. To be noted: HT-29, 48 h.
The test system of the next assay is MDA-MB-231. The assay is described as follows: Cytotoxicity against estrogen receptor-deficient human MDA-MB-231 cells after 48 hrs by MTT assay. To be noted: MDA-MB-231, 48 h. The format is functional, cell-based. Background: Tetrazolium assays rely on reduction of a dye to a coloured formazan, in cell work by metabolically active cells.
A further assay concerns MCF7. Briefly: Cytotoxicity against human MCF7 cells expressing estrogen receptor after 48 hrs by MTT assay. Type of assay: functional, cell-based. To be noted: MCF7, 48 h.
A further assay relates to K562. Briefly: Cytotoxicity against human K562 cells expressing estrogen receptor after 48 hrs by MTT assay. The format is functional, cell-based. To be noted: K562, 48 h.
Assay [1] has as its system PC-3. Briefly: Cytotoxicity against human PC3 cells expressing estrogen receptor after 48 hrs by MTT assay. Type of assay: functional, cell-based. To be noted: PC-3, 48 h.
For assay [2], the system named is PC-3. Briefly: Ratio of doxorubicin IC50 to compound IC50 for human PC3 cells expressing estrogen receptor after 48 hrs by MTT assay. The format is functional.

Results on five compounds are retold here after ChEMBL document CHEMBL3217599, “Selective antitumour activity and ER molecular docking studies of newly synthesizedd-homo fused steroidal tetrazoles” (Medchemcomm, 2013).

Bounds are passed on as bounds.

Take `C[C@H]1n2nnnc2C[C@H]2[C@@H]3CCc4cc(OCc5ccccc5)ccc4[C@H]3CC[C@@]21C`: the IC50 with HeLa was above 100 µM; in the assay with MRC5 it was above 100 µM; in the assay with HT-29, 18 µM; with MDA-MB-231 it was above 100 µM; in the assay with MCF7, 4.58 µM; in the assay on K562, above 100 µM. Further, the IC50 with PC-3 [1] was above 100 µM.

Consider `CC(=O)O[C@H]1CC[C@@]2(C)C(=CC[C@H]3[C@@H]4Cc5nnnn5C[C@@]4(C)CC[C@@H]32)C1`, for which the IC50 in the assay with HeLa is above 100 µM; in the assay with MRC5 it was above 100 µM; with HT-29, above 100 µM; with MDA-MB-231, above 100 µM; in the assay on MCF7 it was 56.2 µM; in the assay with K562, 45.2 µM. Further, the IC50 in the assay with PC-3 [1] stood at 79 µM.

As for `CC(=O)O[C@H]1CC[C@@]2(C)C(=CC[C@H]3[C@@H]4Cc5nnnn5[C@H](C)[C@@]4(C)CC[C@@H]32)C1`, the IC50 in the assay with HeLa is above 100 µM; in the assay with MRC5, above 100 µM; with HT-29, above 100 µM; in the assay on MDA-MB-231, 89.6 µM; in the assay on MCF7 it was 25.4 µM; in the assay with K562 it was 11.1 µM. Besides, in the assay on PC-3 [1], the IC50 came to 15.3 µM. Further, the “Ratio IC50” value with PC-3 [2] was above 6.

`COc1cccc2c1C(=O)c1c(O)c3c(c(O)c1C2=O)C[C@@](O)(C(=O)CO)C[C@@H]3O[C@H]1C[C@H](N)[C@H](O)[C@H](C)O1` [DOXORUBICIN]: the IC50 came to 0.32 µM in the assay with HT-29, 0.75 µM in the assay with MCF7 and 0.36 µM in the assay with K562.

Regarding `C[C@]12CC[C@@H]3c4ccc(OCc5ccccc5)cc4CC[C@H]3[C@@H]1Cc1nnnn1C2`, the IC50 was above 100 µM in the assay with HeLa; above 100 µM in the assay with MRC5; above 100 µM in the assay with HT-29; above 100 µM with MDA-MB-231; 12.6 µM in the assay on MCF7; above 100 µM in the assay on K562. In the assay with PC-3 [1], this compound returned a half-inhibitory concentration (IC50) of 65.5 µM.

Broadly, the IC50 is the concentration that inhibits the measured activity by half. Low values mean greater potency in that assay, high ones weaker potency in that assay.
